Tests used:
[1] = test system: iPS cell-derived differentiated neurocyte cocultured with human primary astrocyte; test: Neurite morphology of iPS cell-derived neurocytes with hMECP2 knockdown, coculture with human primary astrocytes (phase-contrast observation, BDNF rescue); format: cell-based; conditions: observed Day 11 to Day 42
Procedure: (§1) Commercially available iPS-cell-derived neurocytes (#EX-SeV-CW50065, Elixirgen Scientific, Inc.) and commercially available human primary astrocytes (#N7805-100, Thermo Fisher Scientific Inc.) were thawed and used to prepare cell suspensions with culture media at 1×10^4 cells/well and 2.5×10^3 cells/well respectively. After the Laminine solution was removed, the suspension was seeded at 50 μL/well, and cocultured. For single culture, 1×10^4 cells/well neurocytes were seeded at 50 μL/well. The culture continued under 5% CO2 at 37° C. in the incubator for 6 weeks. Half the amount of the culture medium was replaced once in 3 to 4 days. The culture medium used was a culture medium specified by Elixirgen Scientific, Inc. for the period of 1 week after the seeding. Then, the culture medium used was Neurobasal Plus supplemented with 2% B-27 Plus, 1% GlutaMAX, 200 μM ascorbic acid, 10% Neurocyte culture medium, and 1% penicillin-streptomycin.
(§2) At 4 days after the cell seeding, virus solutions for expression of the respective shRNAs were added under MOI 0.1 and MOI 1, and allowed to cause infection. MOI was prepared in accordance with only the number of neurocytes. At 7 hours after the infection, the whole amount of culture medium was replaced. To the culture medium in the wells to be rescued, BDNF, which is known for the therapeutic effect for Rett syndrome, was added at 50 ng/mL. […]

[2] = test system: iPS cell-derived differentiated neurocyte alone; test: Neurite morphology of iPS cell-derived neurocytes infected with hMECP2-shRNA lentivirus, single culture; format: cell-based, human; conditions: FIG. 3
Procedure: as §1, §2

[3] = test system: hMECP2; test: Ratio of neurocytes with MECP2 knocked down versus amount of lentivirus infection (mCherry fluorescence); format: cell-based, human; conditions: coculture
From the text: As a lentivirus vector for transfection, an hMECP2-shRNA lentivirus vector plasmid was used. This plasmid vector contains, downstream of a U6 promoter, a base sequence of SEQ ID NO: 3 ([…]) encoding an shRNA complementary to the 3′ UTR of the hMECP2 gene. Additionally, as a control lentivirus vector, an NC-shRNA lentivirus vector plasmid was used. This plasmid vector contains, downstream of a U6 promoter, a non-mammalian shRNA having a base sequence of SEQ ID NO: 4 ([…]).
At 4 days after the cell seeding, virus solutions for expression of the respective shRNAs were added under MOI 0.1 and MOI 1, and allowed to cause infection. MOI was prepared in accordance with only the number of neurocytes. At 7 hours after the infection, the whole amount of culture medium was replaced. To the culture medium in the wells to be rescued, BDNF, which is known for the therapeutic effect for Rett syndrome, was added at 50 ng/mL.

Row | Molecule | Knockdown effect on hMECP2 evaluated by number of neurites and length of the neurite ([1]; coculture of neurocyte and human primary astrocyte, FIG. 1 a to f) | Knockdown effect on hMECP2 evaluated by number of neurites and length of the neurite [2] | Ratio of neurocytes with MECP2 knocked down ([3]; infection with a large amount of lentivirus, FIG. 5) | Ratio of neurocytes with MECP2 knocked down ([3]; infection with a small amount of lentivirus, FIG. 4) | Rescue of the hMECP2 knockdown effect (decrease in number and length of neurites) ([1]; BDNF 50 ng/mL in culture medium, hMECP2-shRNA lentivirus-infected neurocytes cocultured with astrocytes, FIG. 1 g to l)
1 | hMECP2-shRNA: shRNA complementary to the 3′ UTR of the hMECP2 gene, encoded by SEQ ID NO: 3, expressed from a lentivirus vector (DNA GGGTAGGGCTCTGACAAAGCTTCCCGATTAACTGAAATAAA) | chronological decrease in the number of neurites and decrease in the length of the neurite | neither a decrease in the number of neurites nor a change in the length of the neurite | in substantially all the neurocytes | in a part of the neurocytes | 
2 | BDNF: BDNF, which is known for the therapeutic effect for Rett syndrome, added to culture medium (protein, UniProt P23560 19-247, looked up) Neurotrophic factor BDNF …: APMKEANIRGQGGLAYPGVRTHGTLESVNGPKAGSRGLTSLADTFEHVIEELLDEDQKVRPNEENNKDADLYTSRVMLSSQVPLEPPLLFLLEEYKNYLDAANMSMRVRRHSDPARRGELSVCDSISEWVTAADKKTAVDMSGGTVTVLEKVPVSKGQLKQYFYETKCNPMGYTKEGCRGIDKRHWNSQCRTTQSYVRALTMDSKKRIGWRFIRIDTSCVCTLTIKRGR |  |  |  |  | improved
